The supplement of paper PMC4932681

Legend:
[1] = system: BT-474 Tam1; experiment: drug sensitivity score (DSS) (DSS (dimensionless)); higher = more sensitive; extreme values may be limits of the assay; settings: 4-OH-tamoxifen in medium 1 µM; 72 h
Summary of the method: (§1)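 Breast cancer cell lines and their resistant derivatives were seeded into 384-well plates holding FO2Baq library drugs at five concentrations spanning a 10 000-fold range. Resistant lines were in medium with 1 μM of the selecting drug. Cells were incubated 72 h at 37 °C, and CellTiter-Glo viability was read on a PHERAstar and normalised to vehicle-only and positive controls. Drug sensitivity score, relative IC50 (curve midpoint) and top-dose inhibition came from logistic dose–response fits (Breeze pipeline).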

[2] = system: BT-474 Tam2; experiment: as above; settings: 4-OH-tamoxifen in medium 1 µM; 72 h
Summary of the method: as §1

[3] = system: BT-474; experiment: as above; settings: 72 h
Summary of the method: as §1

[4] = system: MCF-7 Tam1; experiment: as above; settings: 4-OH-tamoxifen in medium 1 µM; 72 h
Summary of the method: as §1

[5] = system: MCF-7; experiment: as above; settings: 72 h
Summary of the method: as §1

[6] = system: T-47D Tam1; experiment: as above; settings: 4-OH-tamoxifen in medium 1 µM; 72 h
Summary of the method: as §1

[7] = system: T-47D Tam2; experiment: as above; settings: 4-OH-tamoxifen in medium 1 µM; 72 h
Summary of the method: as §1

[8] = system: T-47D; experiment: as above; settings: 72 h
Summary of the method: as §1

[9] = system: ZR-75-1 Tam1; experiment: as above; settings: 4-OH-tamoxifen in medium 1 µM; 72 h
Summary of the method: as §1

[10] = system: ZR-75-1 Tam2; experiment: as above; settings: 4-OH-tamoxifen in medium 1 µM; 72 h
Summary of the method: as §1

[11] = system: ZR-75-1; experiment: as above; settings: 72 h
Summary of the method: as §1

[12] = system: BT-474 Tam1; experiment: relative IC50 (midpoint of fitted logistic curve, plateau may be below 50% inhibition; CellTiter-Glo viability); higher = less potent; settings: 4-OH-tamoxifen in medium 1 µM; 72 h
Summary of the method: as §1

[13] = system: BT-474 Tam2; experiment: as above; settings: 4-OH-tamoxifen in medium 1 µM; 72 h
Summary of the method: as §1

[14] = system: BT-474; experiment: as above; settings: 72 h
Summary of the method: as §1

[15] = system: MCF-7 Tam1; experiment: as above; settings: 4-OH-tamoxifen in medium 1 µM; 72 h
Summary of the method: as §1

[16] = system: MCF-7; experiment: as above; settings: 72 h
Summary of the method: as §1

[17] = system: T-47D Tam1; experiment: as above; settings: 4-OH-tamoxifen in medium 1 µM; 72 h
Summary of the method: as §1

[18] = system: T-47D Tam2; experiment: as above; settings: 4-OH-tamoxifen in medium 1 µM; 72 h
Summary of the method: as §1

[19] = system: T-47D; experiment: as above; settings: 72 h
Summary of the method: as §1

[20] = system: ZR-75-1 Tam1; experiment: as above; settings: 4-OH-tamoxifen in medium 1 µM; 72 h
Summary of the method: as §1

[21] = system: ZR-75-1 Tam2; experiment: as above; settings: 4-OH-tamoxifen in medium 1 µM; 72 h
Summary of the method: as §1

[22] = system: ZR-75-1; experiment: as above; settings: 72 h
Summary of the method: as §1

| SMILES | relative IC50 [12] [nM] | relative IC50 [13] [nM] | relative IC50 ([14]; 4-OH-tamoxifen in medium 0 µM) [nM] | relative IC50 ([14]; 4-OH-tamoxifen in medium 1 µM) [nM] | relative IC50 [15] [nM] | relative IC50 ([16]; 4-OH-tamoxifen in medium 0 µM) [nM] | relative IC50 ([16]; 4-OH-tamoxifen in medium 1 µM) [nM] | relative IC50 [17] [nM] | relative IC50 [18] [nM] | relative IC50 ([19]; 4-OH-tamoxifen in medium 0 µM) [nM] | relative IC50 ([19]; 4-OH-tamoxifen in medium 1 µM) [nM] | drug sensitivity score [1] | drug sensitivity score [2] | drug sensitivity score ([3]; 4-OH-tamoxifen in medium 0 µM) | drug sensitivity score ([3]; 4-OH-tamoxifen in medium 1 µM) | drug sensitivity score [4] | drug sensitivity score ([5]; 4-OH-tamoxifen in medium 0 µM) | drug sensitivity score ([5]; 4-OH-tamoxifen in medium 1 µM) | drug sensitivity score [6] | drug sensitivity score [7] | drug sensitivity score ([8]; 4-OH-tamoxifen in medium 0 µM) | drug sensitivity score ([8]; 4-OH-tamoxifen in medium 1 µM) | drug sensitivity score [9] | drug sensitivity score [10] | drug sensitivity score ([11]; 4-OH-tamoxifen in medium 0 µM) | drug sensitivity score ([11]; 4-OH-tamoxifen in medium 1 µM) | relative IC50 [20] [nM] | relative IC50 [21] [nM] | relative IC50 ([22]; 4-OH-tamoxifen in medium 0 µM) [nM] | relative IC50 ([22]; 4-OH-tamoxifen in medium 1 µM) [nM] |
| --- | --- | --- | --- | --- | --- | --- | --- | --- | --- | --- | --- | --- | --- | --- | --- | --- | --- | --- | --- | --- | --- | --- | --- | --- | --- | --- | --- | --- | --- | --- |
| COc1cc2c(N3CCN(C(=O)Nc4ccc(OC(C)C)cc4)CC3)ncnc2cc1OCCCN1CCCCC1 [Tandutinib] | > 1000 | > 1000 | > 1000 | > 1000 | > 1000 | > 1000 | > 1000 | > 1000 | > 1000 | > 1000 | > 1000 | 0 | 0 | 0 | 0 | 0 | 0 | 0 | 0 | 0 | 0 | 0 | 0 | 0 | 0 | 0 | > 1000 | > 1000 | > 1000 | > 1000 |
| Oc1ncc(N(CCCl)CCCl)c(O)n1 [Uracil mustard] | > 10000 | > 10000 | > 10000 | > 10000 | > 10000 | > 10000 | – | > 10000 | > 10000 | > 10000 | > 10000 | 0 | 0 | 0 | 0 | 0 | 0 | 0.208 | 0 | 0 | 0 | 0 | 0 | 0 | 0 | 0 | > 10000 | > 10000 | > 10000 | > 10000 |
| CCc1c(C(=O)C(N)=O)c2c(OCC(=O)O)cccc2n1Cc1ccccc1 [Varespladib] | > 10000 | > 10000 | > 10000 | > 10000 | > 10000 | – | > 10000 | > 10000 | > 10000 | > 10000 | > 10000 | 0 | 0 | 0 | 0 | 0 | 0.0495 | 0 | 0 | 0 | 0 | 0 | 0 | 0 | 0 | 0 | > 10000 | > 10000 | > 10000 | > 10000 |
| C[C@]1(c2nc3c(C(N)=O)cccc3[nH]2)CCCN1 [Veliparib  (ABT-888)] | > 10000 | > 10000 | > 10000 | > 10000 | > 10000 | > 10000 | > 10000 | > 10000 | > 10000 | > 10000 | > 10000 | 0 | 0 | 0 | 0 | 0 | 0 | 0 | 0 | 0 | 0 | 0 | 0 | 0 | 0 | 0 | > 10000 | > 10000 | > 10000 | > 10000 |
| O=P(O)(O)C(O)(Cn1ccnc1)P(=O)(O)O [Zoledronic acid] | > 10000 | > 10000 | > 10000 | > 10000 | > 10000 | > 10000 | > 10000 | > 10000 | > 10000 | > 10000 | > 10000 | 0 | 0 | 0 | 0 | 0 | 0 | 0 | 0 | 0 | 0 | 0 | 0 | 0 | 0 | 0 | > 10000 | > 10000 | > 10000 | > 10000 |

Now from value to compound, other results behind:

| relative IC50 [12] [nM] | relative IC50 [13] [nM] | relative IC50 ([14]; 4-OH-tamoxifen in medium 0 µM) [nM] | relative IC50 ([14]; 4-OH-tamoxifen in medium 1 µM) [nM] | relative IC50 [15] [nM] | relative IC50 ([16]; 4-OH-tamoxifen in medium 0 µM) [nM] | relative IC50 ([16]; 4-OH-tamoxifen in medium 1 µM) [nM] | relative IC50 [17] [nM] | relative IC50 [18] [nM] | relative IC50 ([19]; 4-OH-tamoxifen in medium 0 µM) [nM] | relative IC50 ([19]; 4-OH-tamoxifen in medium 1 µM) [nM] | SMILES | drug sensitivity score [1] | drug sensitivity score [2] | drug sensitivity score ([3]; 4-OH-tamoxifen in medium 0 µM) | drug sensitivity score ([3]; 4-OH-tamoxifen in medium 1 µM) | drug sensitivity score [4] | drug sensitivity score ([5]; 4-OH-tamoxifen in medium 0 µM) | drug sensitivity score ([5]; 4-OH-tamoxifen in medium 1 µM) | drug sensitivity score [6] | drug sensitivity score [7] | drug sensitivity score ([8]; 4-OH-tamoxifen in medium 0 µM) | drug sensitivity score ([8]; 4-OH-tamoxifen in medium 1 µM) | drug sensitivity score [9] | drug sensitivity score [10] | drug sensitivity score ([11]; 4-OH-tamoxifen in medium 0 µM) | drug sensitivity score ([11]; 4-OH-tamoxifen in medium 1 µM) | relative IC50 [20] [nM] | relative IC50 [21] [nM] | relative IC50 ([22]; 4-OH-tamoxifen in medium 0 µM) [nM] | relative IC50 ([22]; 4-OH-tamoxifen in medium 1 µM) [nM] |
| --- | --- | --- | --- | --- | --- | --- | --- | --- | --- | --- | --- | --- | --- | --- | --- | --- | --- | --- | --- | --- | --- | --- | --- | --- | --- | --- | --- | --- | --- | --- |
| 27.4 | 38.6 | 42.2 | 42.4 | 444 | 61.5 | 65.6 | 1640 | 2180 | 1550 | 939 | C=CCNC1=C2C[C@@H](C)C[C@H](OC)[C@H](O)[C@@H](C)/C=C(\C)[C@H](OC(N)=O)[C@@H](OC)/C=C\C=C(/C)C(=O)NC(=CC1=O)C2=O [Tanespimycin  (17-AAG)] | 24 | 23.1 | 17.1 | 24 | 4.15 | 19.2 | 13.9 | 3.79 | 3.1 | 5.17 | 5.11 | 7.79 | 11.6 | 8.45 | 9.57 | 284 | 118 | 74.5 | 141 |
| > 10000 | > 10000 | > 10000 | > 10000 | > 10000 | > 10000 | > 10000 | > 10000 | > 10000 | > 10000 | – | O=C1CCC(N2C(=O)c3ccccc3C2=O)C(=O)N1 (stereo unspecified) [Thalidomide] | 0 | 0 | 0 | 0 | 0 | 0 | 0 | 0 | 0 | 0 | 0 | 0 | 0 | 0 | 0.0754 | > 10000 | > 10000 | > 10000 | – |
| 588 | 409 | 467 | 525 | 486 | 198 | 355 | 736 | 855 | 598 | 864 | CN[C@@H]1C[C@H]2O[C@@](C)([C@@H]1OC)n1c3ccccc3c3c4c(c5c6ccccc6n2c5c31)C(=O)N[C@H]4O [UCN-01] | 13.4 | 15.6 | 10.8 | 13.3 | 14.3 | 17.1 | 15.8 | 10.2 | 8.25 | 9.64 | 8.4 | 8.97 | 9.41 | 9.37 | 6.62 | 615 | 686 | 437 | 1010 |
| 218 | 337 | 71.1 | 171 | 57 | 2.65 | 49.6 | 526 | 811 | 47.5 | 299 | COCC[n+]1c2c(n(Cc3cnccn3)c1C)C(=O)c1ccccc1C2=O [YM155] | 19.6 | 16.6 | 25.6 | 20.9 | 25.8 | 43 | 26.5 | 14.2 | 11.4 | 27.1 | 17.6 | 15.3 | 16.2 | 28.5 | 19 | 454 | 358 | 36.5 | 202 |
